In patent publication US5258362A, “Renin inhibiting compounds” (Abbott Laboratories, priority 1992, dated 1993):

target: T1, human renal renin (Homo sapiens, UniProt P00797); assay: Inhibition of human renal renin in vitro (angiotensin I formed, measured by radioimmunoassay); format: biochemical; conditions: human renal renin with renin substrate (human angiotensinogen), 37° C., pH 6.0
T1 construct: human renal renin, free from acid proteolytic activity; from tissue; host or cells: human kidney (from the word 'renal')
T1 sequence (P00797 67-406): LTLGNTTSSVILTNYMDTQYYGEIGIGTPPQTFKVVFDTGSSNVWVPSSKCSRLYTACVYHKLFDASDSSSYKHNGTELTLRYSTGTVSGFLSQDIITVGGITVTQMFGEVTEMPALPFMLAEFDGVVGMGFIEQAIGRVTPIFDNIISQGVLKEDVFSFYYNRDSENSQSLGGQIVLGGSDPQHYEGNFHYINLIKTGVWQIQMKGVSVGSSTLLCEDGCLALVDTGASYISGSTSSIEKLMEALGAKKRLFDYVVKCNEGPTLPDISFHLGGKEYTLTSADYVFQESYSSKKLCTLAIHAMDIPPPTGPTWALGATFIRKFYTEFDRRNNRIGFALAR
Procedure: At the end of the incubation, the amount of angiotensin I formed is measured by radioimmunoassay and the molar concentration required to cause 50% inhibition, expressed as the IC50 is calculated.

Point of comparison: `CC[C@H]1CO[C@@H]1[C@H](O)[C@H](CC1CCCCC1)NC(=O)C(C)NC(=O)[C@H](Cc1ccccc1)Cn1ccnc1` (stereo partly drawn) [Example 192, (2R)-2-Benzyl-3-(imidazol-1-yl)propionyl-alanine Acid of (1R,2S,2'S,3'S)-2-Amino-3-cyclohexyl-1-[3'-(ethyl)oxetan-2'-yl]-1-(hydroxy)propane], IC50 3.4 nM. Against it:
- CCCC[C@H](NC(=O)C(Cc1ccccc1)Cc1ccccc1)C(=O)N[C@@H](CC1CCCCC1)[C@@H](O)[C@H]1OC[C@@H]1CC [Example 188, Dibenzylacetyl-(nor)Leucine Amide of (1R,2S,2'S,3'S)-2-Amino-3-cyclohexyl-1-[3'-(ethyl)oxetan-2'-yl]-1-(hydroxy)propane] — 5-fold lower, 0.68 nM
- CCCC[C@H](NC(=O)[C@H](Cc1ccccc1)Cn1ccnc1)C(=O)N[C@@H](CC1CCCCC1)[C@@H](O)[C@H]1OC[C@@H]1CC [Example 189, (2R)-2-Benzyl-3-(imidazol-1-yl)propionyl-(nor)Leucine Amide of (1R,2S,2'S,3'S)-2-Amino-3-cyclohexyl-1-[3'-(ethyl)oxetan-2'-yl]-1-(hydroxy)propane] — 7.4-fold lower, 0.46 nM
- CC[C@H]1CO[C@@H]1[C@H](O)[C@H](CC1CCCCC1)NC(=O)C(C)NC(=O)[C@H](Cc1ccccc1)CS(=O)(=O)N1CCN(C)CC1 (stereo partly drawn) [Example 191, (2S) 2-Benzyl-3-(1-methyl-piperazin-4-ylsulfonyl)propionylalanine Amide of (1R,2S,2'S,3'S)-2-Amino-3-cyclohexyl-1-[3'-(ethyl)oxetan-2'-yl]-1-(hydroxy)propane] — 5.9-fold lower, 0.58 nM
